The source made the active and inactive calls. No cut-off for these calls is given here.
Columns and labels:
K562 = test: Antiproliferative activity against human K562 cells assessed as reduction in cell viability incubated for 72 hrs by IncuCyte live-cell imaging assay; type: functional, cell-based; conditions: K562, 72 h
Z-138 = test: Antiproliferative activity against human Z138 cells assessed as reduction in cell viability incubated for 72 hrs by IncuCyte live-cell imaging assay; type: functional, cell-based; conditions: Z-138, 72 h
HCT-116 = test: Antiproliferative activity against human HCT116 cells assessed as reduction in cell viability incubated for 72 hrs by IncuCyte live-cell imaging assay; type: functional, cell-based; conditions: HCT-116, 72 h
CAPAN-1 [1] = test: Antiproliferative activity against human Capan1 cells assessed as reduction in cell viability incubated for 72 hrs by IncuCyte live-cell imaging assay; type: functional, cell-based; conditions: CAPAN-1, 72 h
[2] = Antiproliferative activity against human DND41 cells assessed as reduction in cell viability incubated for 72 hrs by IncuCyte live-cell imaging assay; type: functional, cell-based; conditions: DND41, 72 h
NCI-H460 = test: Antiproliferative activity against human NCI-H460 cells assessed as reduction in cell viability incubated for 72 hrs by IncuCyte live-cell imaging assay; type: functional, cell-based; conditions: NCI-H460, 72 h
LN-229 = test: Antiproliferative activity against human LN229 cells assessed as reduction in cell viability incubated for 72 hrs by IncuCyte live-cell imaging assay; type: functional, cell-based; conditions: LN-229, 72 h
HL-60 = test: Antiproliferative activity against human HL60 cells assessed as reduction in cell viability incubated for 72 hrs by IncuCyte live-cell imaging assay; type: functional, cell-based; conditions: HL-60, 72 h
HEp-2 [3] = test: Induction of DNA damage in human Hep2 cells assessed as gamma-H2AX positive cells at 100 uM after 24 hrs by DAPI staining based immunofluorescence analysis (reference value: 0.51%); type: functional
PBMC [4] = test: Induction of apoptosis in human PBMC assessed as caspase 3/7 activation incubated for 72 hrs and measured at 3 hrs interval by IncuCyte Caspase 3/7 Green reagent based assay; type: cell-based
Tubulin (Homo sapiens) = Tubulin (Homo sapiens) (UniProt P68371+Q9H4B7+P0DPH7+P68366+Q13509+Q71U36+P04350+Q3ZCM7+P07437+P68363+Q9BQE3+Q6PEY2+Q13885+Q9BVA1+Q9BUF5); test: Inhibition of tubulin polymerization in human Hep2 cells at 100 uM after 3 hrs by DAPI-staining based fluorescence microscopic assay; type: cell-based; conditions: HEp-2
HEp-2 [5] = test: Induction of DNA damage in human Hep2 cells assessed as gamma-H2AX positive cells at 10 uM after 24 hrs by DAPI staining based immunofluorescence analysis relative to control; type: functional
Salmon testes DNA = test: Binding affinity to salmon sperm DNA assessed as DNA intercalation at 20 uM incubated for 20 mins by acridine orange orange dye based fluorescence polarization assay; type: nucleic-acid assay; conditions: Salmonidae
HEp-2 [6] = test: Induction of DNA damage in human Hep2 cells assessed as gamma-H2AX positive cells at 1 uM after 24 hrs by DAPI staining based immunofluorescence analysis relative to control; type: functional
HEp-2 [7] = test: Induction of DNA damage in human Hep2 cells assessed as increase in gamma-H2AX positive cells after 24 hrs by DAPI staining based immunofluorescence analysis; type: functional, cell-based
PBMC [8] = test: Induction of apoptosis in human PBMC assessed as caspase 3/7 activation at 0.0064 to 100 uM incubated for 72 hrs and measured at 3 hrs interval by IncuCyte Caspase 3/7 Green reagent based assay; type: cell-based
CAPAN-1 [9] = test: Induction of apoptosis in human Capan1 cells assessed as increase in apoptotic cells incubated for 72 hrs and measured at 3 hrs interval by IncuCyte Caspase 3/7 Green reagent based assay; type: functional, cell-based

Row | IC50 (K562) [µM] | IC50 (HCT-116) [µM] | IC50 (NCI-H460) [µM] | IC50 (HL-60) [µM] | inhibition (Tubulin (Homo sapiens)) | Activity (Salmon testes DNA) | Compound | IC50 (Z-138) [µM] | IC50 (CAPAN-1 [1]) [µM] | IC50 [2] [µM] | IC50 (LN-229) [µM] | Activity (HEp-2 [3]) [%] | IC50 (PBMC [4]) [µM] | Activity (HEp-2 [5]) [%] | Activity (HEp-2 [6]) [%] | Activity (HEp-2 [7]) | Activity (PBMC [8]) | Activity (CAPAN-1 [9])
1 | > 100 | > 100 | 79.4 | > 100 |  |  | Nc1ncnn2c([C@@H]3O[C@H](CO)[C@@H](O)[C@H]3O)cc(C#Cc3ccc(F)cc3)c12 | 89 | 55.4 | > 100 | > 100 |  |  |  |  |  |  | 
2 | > 100 | > 100 | > 100 | > 100 |  |  | Nc1ncnn2c([C@@H]3O[C@H](CO)[C@@H](O)[C@H]3O)cc(-c3ccccc3Cl)c12 | 76.1 | 54.9 | 78.5 | > 100 |  |  |  |  |  |  | 
3 | 47.8 | 59.3 | 45.9 | 37.9 |  |  | Nc1ncnn2c([C@@H]3O[C@H](CO)[C@@H](O)[C@H]3O)cc(-c3ccc(Cl)cc3)c12 | 40.2 | 56.7 | 35.1 | 32.6 |  |  |  |  |  |  | 
4 | 1.1 | 0.2 | 0.4 | 0.2 | Active | Active | CCCC#Cc1cc([C@@H]2O[C@H](CO)[C@@H](O)[C@H]2O)n2ncnc(N)c12 | 0.02 | 0.02 | 0.08 | 0.04 | 9.38 | 0.05 to 11 | 0.82 | 1.14 | Dose-dependent effect |  | 
5 | > 100 | 82.6 | > 100 | > 100 |  |  | Nc1ncnn2c([C@@H]3O[C@H](CO)[C@@H](O)[C@H]3O)cc(-c3ccccc3)c12 | > 100 | 65.2 | > 100 | 75.1 |  |  |  |  |  |  | 
6 | 66.4 | 45.2 | 35.6 | 37.3 |  |  | Nc1ncnn2c([C@@H]3O[C@H](CO)[C@@H](O)[C@H]3O)cc(-c3ccsc3)c12 | 43.5 | 56.2 | 85.4 | 57.7 |  |  |  |  |  |  | 
7 | 3.1 | 4.8 | 3.7 | 2 | Active | Active | Nc1ncnn2c([C@@H]3O[C@H](CO)[C@@H](O)[C@H]3O)cc(/C=C/c3ccccc3)c12 | 1.3 | 2.6 | 1.7 | 3.9 | 0.22 |  | 0 | 0.05 | Dose-dependent effect | Non-Toxic | 
8 | 0.04 | 0.05 | 0.08 | 0.04 | Active | Active | Nc1ncnn2c([C@@H]3O[C@H](CO)[C@@H](O)[C@H]3O)cc(C#CC3CC3)c12 | 0.02 | 0.02 | 0.04 | 0.03 | 16.22 | 0.1 to 0.4 | 5.2 | 3.22 | Dose-dependent effect |  | Active
9 | 2.1 | 1.4 | 1.5 | 0.5 | Active | Active | Nc1ncnn2c([C@@H]3O[C@H](CO)[C@@H](O)[C@H]3O)cc(-c3ccoc3)c12 | 0.3 | 0.9 | 0.1 | 1 | 3.74 |  | 1.54 | 0.13 | Dose-dependent effect | Non-Toxic | Active
10 | > 100 | 42.5 | 55.5 | 68.3 |  |  | Nc1ncnn2c([C@@H]3O[C@H](CO)[C@@H](O)[C@H]3O)cc(-c3ccc(F)cc3)c12 | > 100 | 65.6 | 39.3 | 65.6 |  |  |  |  |  |  | 
11 | 0.009 | 0.007 | 0.004 | 0.05 |  |  | CC(=O)O[C@@]12CO[C@@H]1C[C@H](O)[C@@]1(C)C(=O)[C@H](O)C3=C(C)[C@@H](OC(=O)[C@H](O)[C@@H](NC(=O)OC(C)(C)C)c4ccccc4)C[C@@](O)([C@@H](OC(=O)c4ccccc4)[C@H]21)C3(C)C [DOCETAXEL ANHYDROUS] | 0.004 | 0.025 | 0.005 | 0.002 |  |  |  |  |  |  | 
12 | > 100 | > 100 | > 100 | 48.4 |  |  | Cc1ccccc1-c1cc([C@@H]2O[C@H](CO)[C@@H](O)[C@H]2O)n2ncnc(N)c12 | 66 | 97.5 | 94.1 | > 100 |  |  |  |  |  |  | 
13 | 76.4 | 47.1 | 69.3 | > 100 |  |  | COc1ccc(-c2cc([C@@H]3O[C@H](CO)[C@@H](O)[C@H]3O)n3ncnc(N)c23)cc1 | 62.6 | 43.9 | 41.7 | 40.3 |  |  |  |  |  |  | 
14 |  |  |  |  |  |  | COc1cc([C@@H]2c3cc4c(cc3[C@@H](O[C@@H]3O[C@@H]5CO[C@@H](C)O[C@H]5[C@H](O)[C@H]3O)[C@H]3COC(=O)[C@H]23)OCO4)cc(OC)c1O [ETOPOSIDE] |  |  |  |  | 89.31 |  | 89.89 | 1.66 |  |  | 
15 | > 100 | 46.9 | 38.5 | > 100 |  |  | Nc1ncnn2c([C@@H]3O[C@H](CO)[C@@H](O)[C@H]3O)cc(C#Cc3ccccc3)c12 | 41.4 | 37.7 | 62.6 | 88 |  |  |  |  |  |  | 
16 | 69.7 | 59.5 | 93.3 | 99.3 |  |  | Nc1ncnn2c([C@@H]3O[C@H](CO)[C@@H](O)[C@H]3O)cc(-c3ccc(F)cc3F)c12 | 59.1 | 50.9 | 68.2 | 43.5 |  |  |  |  |  |  | 
17 | > 100 | > 100 | > 100 | > 100 |  |  | Nc1ncnn2c([C@@H]3O[C@H](CO)[C@@H](O)[C@H]3O)cc(-c3ccccc3F)c12 | 95.3 | > 100 | > 100 | > 100 |  |  |  |  |  |  | 
18 | 2.4 | 2.9 | 1.7 | 0.4 | Active | Active | CCCCC#Cc1cc([C@@H]2O[C@H](CO)[C@@H](O)[C@H]2O)n2ncnc(N)c12 | 0.2 | 1 | 0.4 | 1 | 1.57 |  | 0.35 | 0.31 | Dose-dependent effect | Non-Toxic | Active
19 | > 100 | 65.5 | 26.6 | > 100 |  |  | Nc1ncnn2c([C@@H]3O[C@H](CO)[C@@H](O)[C@H]3O)cc(C#Cc3cccs3)c12 | 50.1 | 32 | 33.4 | > 100 |  |  |  |  |  |  | 

Row | Compound | IC50 (K562) [µM] | IC50 (HCT-116) [µM] | IC50 (NCI-H460) [µM] | IC50 (HL-60) [µM] | inhibition (Tubulin (Homo sapiens)) | Activity (Salmon testes DNA) | IC50 (Z-138) [µM] | IC50 (CAPAN-1 [1]) [µM] | IC50 [2] [µM] | IC50 (LN-229) [µM] | Activity (HEp-2 [3]) [%] | IC50 (PBMC [4]) [µM] | Activity (HEp-2 [5]) [%] | Activity (HEp-2 [6]) [%] | Activity (HEp-2 [7]) | Activity (PBMC [8]) | Activity (CAPAN-1 [9])
20 | CN[C@@H]1C[C@H]2O[C@@](C)([C@@H]1OC)n1c3ccccc3c3c4c(c5c6ccccc6n2c5c31)C(=O)NC4 [STAUROSPORINE] | 0.04 | 0.04 | 0.06 | 0.04 |  |  |  |  |  |  |  |  |  |  |  |  | 
